Measurements taken from PMC12518634, “The noncanonical function of liver-type phosphofructokinase potentiates the efficacy of HDAC inhibitors in cancer” (Signal Transduction and Targeted Therapy, 2025).
Where a name gives a salt, the structure may show the parent alone. Read-outs that look alike come from different tables or passages of the source.

Key:
[1] = system: 1405R3; assay: High-throughput drug screen, CellTiter-Glo viability, 72 h; assay type: cell-based, human; set-up: AUC: scale not given here; settings: 1405R3 DSRT analysis; for AUC: area under the dose-response curve; for MIN: lower asymptote of fitted dose-response curve; for EC50: 72 h, fitted dose-response curve, Min.Conc.tested 1, Max.Conc.tested 10000, read-out: EC50; for SLOPE: slope of fitted dose-response curve
Method: (§1) The cells were seeded and incubated with a gradient of concentrations of drugs for 72 h, after which the cell viability was assessed (Supplementary Fig. 1a). The drug library primarily comprises epigenetic drugs, including HDAC inhibitors, DNA methyltransferase inhibitors, and histone demethylase inhibitors, as well as conventional chemotherapies and kinase inhibitors (Supplementary Fig. 1b and Supplementary Table 1). […] To identify novel therapeutics against CCA, we conducted a high-throughput screen employing PerkinElmer’s integrated robotic Explorer G3 workstations. […] Following dilution to five specified concentrations, drugs were dispensed into 96-well plates in the sequence detailed in Supplementary Fig. 1a. The CCA cell lines were subsequently plated in 384-well plates at a density of 3000 cells per well in a 20 μL total volume. After a 24-h incubation, the compounds were added to the wells and incubated for 72 h. We then quantified cell viability via the CellTiter-Glo luminescent assay according to the manufacturer’s protocol. Signal detection was carried out on a Synergy2 plate reader operated by Gen5 software (BioTek). For data processing, the raw luminescence data were processed through the Breeze pipeline for curve fitting, yielding quality control metrics (e.g., Z-factors) and drug response parameters (AUC and DSS), as adapted from previous work.[54] Drug responses were evaluated on the basis of the drug sensitivity score (DSS), and a cutoff of ≥10 was used to define efficacy. The complete drug library and screening dataset are available in Supplementary Tables 1-3.
(§2) Supplementary Fig. 1. A high-throughput drug screen to identify drugs targeting CCA. a Schematic representation of the drug screening protocol. […] Each drug was tested at five different concentrations (10, 1, 0.1, 0.01, and 0.001 μM), and each treatment was replicated twice. b Classification of drugs used for screening.

[2] = system: 783C-6; assay: as above; assay type: cell-based, human; set-up: AUC: scale not given here; settings: for AUC: area under the dose-response curve; for EC50: 72 h, read-out: EC50
Method: as §1, §2

[3] = Homo sapiens, CellTiter-Glo viability, GI50
[4] = 783C-6 cells, DSS of DSRT analysis
[5] = 783C-6 cells, minimum of dose-response curve
[6] = 783C-6 cells, slope of fitted dose-response curve
[7] = 783C-6 DSRT analysis, CellTiter-Glo viability, fitted dose-response curve, Min.Conc.tested 1, Max.Conc.tested 10000
[8] = 783C-6 DSRT analysis, DSS calculated from the dose-response curve
[9] = 783C-6 DSRT analysis, MIN of the fitted dose-response curve
[10] = 783C-6 DSRT analysis, slope of the fitted dose-response curve
[11] = 783C-6 cells, DSRT analysis, CellTiter-Glo viability, concentrations tested 1 to 10000 (unit inferred), GI50

CNC(=O)c1cc(Oc2ccc(NC(=O)Nc3ccc(Cl)c(C(F)(F)F)c3)cc2)ccn1 [Sorafenib Tosylate]
AUC [1]: 36.2 | DSS ([1]; drug sensitivity score): 3.8 | MIN [1]: 14 | EC50 [1, 3]: 3940 nM | DSS [2, 4]: 3.4 | AUC ([2]; 783C-6 cells): 31.4 | EC50 ([2]; Homo sapiens): 2190 nM

CC(=O)O[C@H]1C(=O)[C@@]2(C)[C@H]([C@H](OC(=O)c3ccccc3)[C@]3(O)C[C@H](OC(=O)[C@H](O)[C@@H](NC(=O)c4ccccc4)c4ccccc4)C(C)=C1C3(C)C)[C@]1(OC(C)=O)CO[C@@H]1C[C@@H]2O [Paclitaxel]
AUC [1]: 129.3 | DSS ([1]; drug sensitivity score): 14.6 | MIN [1]: 37.8 | EC50 [1, 3]: 82.1 nM | DSS [2, 4]: 21.1 | AUC ([2]; 783C-6 cells): 167.6 | MIN [2, 5]: 52.1 | EC50 ([2]; Homo sapiens): 1.9 nM

Cc1cc(-c2ccccc2)cc(C(=O)NNS(=O)(=O)c2cccc(O)c2)c1F [WM-3835]
AUC [1]: 14.5 | DSS ([1]; drug sensitivity score): 0 | MIN [1]: 90.6 | DSS [2, 4]: 0 | AUC ([2]; 783C-6 cells): 15.7 | MIN [2, 5]: 93.1

CN1CCc2c(c3ccccc3n2Cc2ccc(C(=O)NO)cc2)C1 [Tubastatin A]
AUC [1]: 8.2 | DSS ([1]; drug sensitivity score): 0 | MIN [1]: 92.6 | DSS [2, 4]: 0 | AUC ([2]; 783C-6 cells): 3.2 | MIN [2, 5]: 92.9

CCN1C(=O)N(c2c(F)c(OC)cc(OC)c2F)Cc2cnc3[nH]c(CN4CCOCC4)cc3c21 [Pemigatinib]
AUC [1]: 7 | DSS ([1]; drug sensitivity score): 0 | MIN [1]: 76.8 | DSS [2, 4]: 4.8 | AUC ([2]; 783C-6 cells): 62.9 | MIN [2, 5]: 78.8

O=C1NC(=O)/C(=C/c2cccc(C(F)(F)F)c2)S1 [SMI-4a]
AUC [1]: 0.1 | DSS ([1]; drug sensitivity score): 0 | MIN [1]: 99.6 | SLOPE [1]: -1.3 | DSS [2, 4]: 0 | AUC ([2]; 783C-6 cells): 2.1 | MIN [2, 5]: 96.8 | SLOPE [2, 6]: -2.5

CCN(c1cc(-c2ccc(CN3CCOCC3)cc2)cc(C(=O)NCc2c(C)cc(C)[nH]c2=O)c1C)C1CCOCC1 [Tazemetostat]
AUC [1]: 12.2 | DSS ([1]; drug sensitivity score): 0 | MIN [1]: 92.1 | DSS [2, 4]: 0 | AUC ([2]; 783C-6 cells): 14.4 | MIN [2, 5]: 90.7

Cc1cc(C)cc(C(=O)NOCCCCCC(=O)NO)c1 [LMK-235]
DSS ([1]; DSS): 11.6 | AUC [1]: 101.6 | EC50 ([1]; CellTiter-Glo): 927 nM | MIN [1]: 2 | SLOPE [1]: -1.7 | EC50 [2, 7]: 1330 nM | DSS [2, 8]: 9.8 | MIN [2, 9]: 3.5 | AUC ([2]; 783C-6 DSRT analysis): 84.5 | SLOPE [2, 10]: -2.5

O=C(NNS(=O)(=O)c1ccccc1F)c1cc(F)cc(-c2ccccn2)c1 [WM-1119]
AUC [1]: 51.4 | DSS ([1]; drug sensitivity score): 0 | MIN [1]: 66.9 | DSS [2, 4]: 0 | AUC ([2]; 783C-6 cells): 7.3 | MIN [2, 5]: 75.9

COc1cc(Nc2ncc3c(n2)-c2ccc(Cl)cc2C(c2c(F)cccc2OC)=NC3)ccc1C(=O)O [Alisertib]
DSS ([1]; DSS): 0.1 | AUC [1]: 15.4 | MIN [1]: 89 | DSS [2, 8]: 3.7 | MIN [2, 9]: 73.6 | AUC ([2]; 783C-6 DSRT analysis): 52.1 | EC50 ([2]; Homo sapiens): 108 nM

COc1cc2c(Oc3ccc(NC(=O)C4(C(=O)Nc5ccc(F)cc5)CC4)cc3F)ccnc2cc1OCCCN1CCOCC1 [Foretinib]
DSS ([1]; DSS): 2.9 | AUC [1]: 27.8 | MIN [1]: 51.5 | EC50 ([1]; Homo sapiens, CellTiter-Glo): 2710 nM | DSS [2, 8]: 4.1 | MIN [2, 9]: 32.7 | AUC ([2]; 783C-6 DSRT analysis): 37.2 | EC50 ([2]; Homo sapiens): 2850 nM

c1cncc(-c2cn[nH]n2)c1 [3-TYP]
DSS ([1]; DSS): 0 | AUC [1]: 4.8 | MIN [1]: 96.9 | SLOPE [1]: -0.1 | DSS [2, 8]: 0 | MIN [2, 9]: 94.7 | AUC ([2]; 783C-6 DSRT analysis): 2.5 | SLOPE [2, 10]: -0.6

COc1cc2ncnc(Nc3ccc(F)c(Cl)c3)c2cc1OCCCN1CCOCC1 [Gefitinib]
DSS ([1]; DSS): 3.6 | AUC [1]: 33.5 | MIN [1]: 70.6 | DSS [2, 8]: 2.5 | MIN [2, 9]: 77.5 | AUC ([2]; 783C-6 DSRT analysis): 27

O=C(NO)c1cnc(NC2(c3ccccc3)CC2)nc1 [ACY-738]
DSS ([1]; DSS): 5 | AUC [1]: 44.6 | MIN [1]: 25.2 | EC50 ([1]; Homo sapiens, CellTiter-Glo): 2570 nM | DSS [2, 8]: 5.2 | MIN [2, 9]: 24.1 | AUC ([2]; 783C-6 DSRT analysis): 46.6 | EC50 ([2]; Homo sapiens): 2460 nM

CCS(=O)(=O)N1CCC([C@@H](C)n2c(C)c(C(=O)NCc3c(OC)cc(C)[nH]c3=O)c3ccccc32)CC1 [CPI-169]
DSS ([1]; DSS): 0 | AUC [1]: 0.1 | MIN [1]: 100 | DSS [2, 8]: 0 | MIN [2, 9]: 97.5 | AUC ([2]; 783C-6 DSRT analysis): 1

CC(C)(C)OC(=O)Nc1ccc(-c2cc(C(=O)NCCCCCCC(=O)NO)no2)cc1 [CAY10603]
DSS ([1]; DSS): 5 | AUC [1]: 45.4 | EC50 ([1]; CellTiter-Glo): 2720 nM | MIN [1]: 20.6 | SLOPE [1]: -2.5 | EC50 [2, 7]: 2730 nM | DSS [2, 8]: 4.4 | MIN [2, 9]: 30.8 | AUC ([2]; 783C-6 DSRT analysis): 39.5 | SLOPE [2, 10]: -2.5

Cn1c(CCCCCCC(=O)NO)nc2cc(N(CCCl)CCCl)ccc21 [Tinostamustine]
AUC [1]: 56 | DSS ([1]; drug sensitivity score): 6.3 | MIN [1]: 10 | EC50 [1, 3]: 2420 nM | DSS [2, 4]: 7.1 | AUC ([2]; 783C-6 cells): 62.6 | MIN [2, 5]: 3.7 | EC50 ([2]; Homo sapiens): 2260 nM

O=C(O)C(=O)O.[NH-][C@@H]1CCCC[C@H]1[NH-].[Pt+2] [Oxaliplatin]
AUC [1]: 20.5 | DSS ([1]; drug sensitivity score): 1.7 | MIN [1]: 78.3 | SLOPE [1]: -2.2 | EC50 [2, 11]: 659 nM | DSS [2, 4]: 3.8 | AUC ([2]; 783C-6 cells): 41.2 | MIN [2, 5]: 65.7 | SLOPE [2, 6]: -1.1

O=C1CCc2c(ccc3ccccc23)O1 [Splitomicin]
AUC [1]: 3.1 | DSS ([1]; drug sensitivity score): 0 | MIN [1]: 95.1 | DSS [2, 4]: 0 | AUC ([2]; 783C-6 cells): 7.8 | MIN [2, 5]: 95

CC(=O)Nc1ccc(C(=O)Nc2ccccc2N)cc1 [Tacedinaline]
AUC [1]: 9.7 | DSS ([1]; drug sensitivity score): 0.6 | MIN [1]: 76.8 | DSS [2, 4]: 0.3 | AUC ([2]; 783C-6 cells): 7.5 | MIN [2, 5]: 82.2

Nc1ccccc1NC(=O)c1cnccn1 [BG45]
DSS ([1]; DSS): 0.1 | AUC [1]: 36.3 | MIN [1]: 83.6 | SLOPE [1]: -0.1 | DSS [2, 8]: 2.2 | MIN [2, 9]: 83.6 | AUC ([2]; 783C-6 DSRT analysis): 49 | SLOPE [2, 10]: -0.3

O=C(O)CCCc1ccccc1 [Benzenebutyric acid]
DSS ([1]; DSS): 0 | AUC [1]: 2.3 | MIN [1]: 94.7 | SLOPE [1]: -0.7 | DSS [2, 8]: 0 | MIN [2, 9]: 96.8 | AUC ([2]; 783C-6 DSRT analysis): 1.4 | SLOPE [2, 10]: -0.7

CC(C)N(CCCNC(=O)Nc1ccc(C(C)(C)C)cc1)C[C@H]1O[C@@H](n2ccc3c(N)ncnc32)[C@H](O)[C@@H]1O [EPZ004777]
DSS ([1]; DSS): 0 | AUC [1]: 0.5 | MIN [1]: 98.8 | DSS [2, 8]: 0 | MIN [2, 9]: 97.4 | AUC ([2]; 783C-6 DSRT analysis): 0.7

TC-H 106
AUC [1]: 47 | DSS ([1]; drug sensitivity score): 2.6 | MIN [1]: 75.6 | SLOPE [1]: -0.4 | EC50 [2, 11]: 923 nM | DSS [2, 4]: 5.3 | AUC ([2]; 783C-6 cells): 61.5 | MIN [2, 5]: 48.5 | SLOPE [2, 6]: -0.6

CCCOc1ccc(/C=C2\SC(=O)NC2=O)cc1 [SMI-16a]
AUC [1]: 0.1 | DSS ([1]; drug sensitivity score): 0 | MIN [1]: 100 | SLOPE [1]: -0.1 | DSS [2, 4]: 0 | AUC ([2]; 783C-6 cells): 5.7 | MIN [2, 5]: 91.3 | SLOPE [2, 6]: -0.5

COc1cc(C)[nH]c(=O)c1CNC(=O)c1c(C)n([C@H](C)C2CCOCC2)c2ccccc12 [CPI-360]
DSS ([1]; DSS): 0 | AUC [1]: 11.9 | MIN [1]: 92.3 | DSS [2, 8]: 0.1 | MIN [2, 9]: 84.8 | AUC ([2]; 783C-6 DSRT analysis): 36.1

COc1ccccc1S(=O)(=O)Nc1ccc2c(c1)CN(C)C(=O)N2 [PFI-1]
EC50 ([1]; CellTiter-Glo viability, GI50): 1350 nM | AUC [1]: 38.8 | DSS ([1]; drug sensitivity score): 4.4 | MIN [1]: 55.4 | SLOPE [1]: -2.5 | DSS [2, 4]: 0 | AUC ([2]; 783C-6 cells): 7.2 | MIN [2, 5]: 94.7 | SLOPE [2, 6]: -2.5
